Reference: US11214803B2, “Modulators of YAP1 expression” (Ionis Pharmaceuticals, Inc., priority 2019, dated 2022)
Strand notation (5' to 3'): a small letter for the sugar, then the base; units joined by * are phosphorothioate-linked, units joined directly phosphodiester-linked; [ ] holds rarer units or linkages, { } end groups; capitals alone tell only the bases. k = constrained ethyl (cEt); [5mC] = 5-methylcytosine; d = 2'-deoxy (DNA)

Columns and labels:
CAL27 cells = assay: Cell proliferation assay in CAL27 cells, CellTiter-Glo (Example 37); assay type: cell-based, human; settings: free uptake, approximately 144 hours
Method: Modified oligonucleotides described in the studies above were tested at various doses in tongue squamous cell carcinoma line CAL27. A control oligonucleotide 792169, described herein above, was also tested.
(§1) Cultured CAL27 cells at a density of 1000 cells/well were treated using free uptake with modified oligonucleotides diluted to concentrations described in the tables below. After approximately 144 hours, cell proliferation was measured using the luminescent cell viability CellTiter-Glo® 2.0 Assay (Promega). Results are presented in the tables below as percent control of the amount of luminescence in samples treated with modified oligonucleotides relative to untreated control cells (% UTC).

SNU-1214 cells = assay: Cell proliferation assay in SNU-1214 cells, CellTiter-Glo (Example 46); assay type: cell-based, human; settings: free uptake, approximately 144 hours
Method: Modified oligonucleotides described in the studies above were tested at various doses in laryngeal squamous cell carcinoma cell line […]. A control oligonucleotide 792169, described herein above, was also tested.
as §1, with “SNU-1214” for “CAL27”

Detroit-562 cells = assay: Cell proliferation assay in Detroit-562 cells, CellTiter-Glo (Example 38); assay type: cell-based, human; settings: free uptake, approximately 144 hours
Method: Modified oligonucleotides described in the studies above were tested at various doses in pharynx carcinoma cell line Detroit-562. A control oligonucleotide 792169, described herein above, was also tested.
as §1, with “Detroit-562” for “CAL27”

[1] = Tolerability in CD-1 mice, body and organ weights (Example 19); assay type: in vivo; settings: male CD-1 mice, 50 mg/kg s.c. twice a week for four weeks (8 treatments), end of study (day 26)
Method: Groups of four male CD-1 mice at 4-6 weeks of age (obtained from Charles River) were injected subcutaneously twice a week for four weeks (for a total of 8 treatments) with 50 mg/kg of modified oligonucleotides. One group of male CD-1 mice was injected with PBS. Mice were euthanized on day 26 post start of treatment (24 hrs following the final administration).
Body weights of CD-1 mice were measured at the end of the study, and the average body weight for each group is presented in the table below. Modified oligonucleotides that caused any changes in organ weights outside the expected range for modified oligonucleotides were excluded from further studies.

Yap1 mRNA [2] = assay: Yap1 mRNA in SNU-1076 cells, RNA analysis (Example 45); assay type: cell-based, human; settings: free uptake, approximately 48 hours
Method: Modified oligonucleotides described in the studies above were tested at various doses in upper aerodigestive tract/laryngeal squamous cell carcinoma line SNU-1076. A control oligonucleotide 792169, described herein above, was also tested.
(§2) Cultured SNU-1076 cells at a density of 5000 cells per well were treated using free uptake with modified oligonucleotides diluted to concentrations described in the tables below. After approximately 48 hours, Yap1 mRNA levels were measured as previously described using the Human Yap1 primer-probe set RTS4814. Yap1 mRNA levels were normalized to actin-beta content, as measured by primer probe set RTS5002. Results are presented in the tables below as percent control of the amount of Yap1 mRNA relative to untreated control cells (% UTC).

Yap1 mRNA [3] = assay: Yap1 mRNA in SNU-1066 cells, RNA analysis (Example 44); assay type: cell-based, human; settings: free uptake, approximately 48 hours
Method: Modified oligonucleotides described in the studies above were tested at various doses in laryngeal squamous cell carcinoma line SNU-1066. A control oligonucleotide 792169, described herein above, was also tested.
as §2, with “SNU-1066” for “SNU-1076”

[4] = Cynomolgus monkey tolerability, urine analysis (Example 34); settings: cynomolgus monkeys, 35 mg/kg subcutaneously, day 44
Method: Prior to the study, the monkeys were kept in quarantine during which the animals were observed daily for general health. The monkeys were 2-4 years old and weighed 2-4 kg. Eleven groups of 4 randomly assigned male cynomolgus monkeys each were injected subcutaneously with Ionis oligonucleotide or saline in a clock-wise rotation between four different sites on the back. Following loading doses on days 1, 3, 5 and 7, the monkeys were dosed once per week (on days 14, 21, 28, 35, and 42) with 35 mg/kg of Ionis oligonucleotide.
Food was removed overnight the day before fresh urine collection, but water was supplied. Fresh urine samples for urinalysis and urine chemistry were collected from all animals using a clean cage pan on wet ice (first in the morning) on day 44. Urinalysis/Urine Chemistry parameters creatinine (UCRE), microprotein (UTP), urine microalbumin (UALB), and protein/creatinine (P/C) ratio were measured using a Toshiba 120FR automated chemistry analyzer (Toshiba Co., Japan).

Yap1 mRNA [5] = assay: Yap1 mRNA in SCC-25 cells, RNA analysis (Example 42); assay type: cell-based, human; settings: free uptake, approximately 48 hours
Method: Modified oligonucleotides described in the studies above were tested at various doses in tongue squamous cell carcinoma cell line SCC-25. A control oligonucleotide 792169, described herein above, was also tested.
as §2, with “SCC-25” for “SNU-1076”

SCC-15 cells = assay: Cell proliferation assay in SCC-15 cells, CellTiter-Glo (Example 41); assay type: cell-based, human; settings: free uptake, approximately 144 hours
Method: Modified oligonucleotides described in the studies above were tested at various doses in tongue squamous cell carcinoma cell line SCC-15. A control oligonucleotide 792169, described herein above, was also tested.
as §1, with “SCC-15” for “CAL27”

Row | Substance | Antiproliferative effect (cell proliferation, luminescence) (CAL27 cells; 0.08 μM) [% UTC] | Antiproliferative effect (cell proliferation, luminescence) (CAL27 cells; 0.4 μM) [% UTC] | Antiproliferative effect (cell proliferation, luminescence) (CAL27 cells; 2 μM) [% UTC] | Antiproliferative effect (cell proliferation, luminescence) (CAL27 cells; 10 μM) [% UTC] | Antiproliferative effect (cell proliferation, luminescence) (SNU-1214 cells; 0.04 μM) [% UTC] | Antiproliferative effect (cell proliferation, luminescence) (SNU-1214 cells; 0.2 μM) [% UTC] | Antiproliferative effect (cell proliferation, luminescence) (SNU-1214 cells; 1 μM) [% UTC] | Antiproliferative effect (cell proliferation, luminescence) (SNU-1214 cells; 5 μM) [% UTC] | Antiproliferative effect (cell proliferation, luminescence) (Detroit-562 cells; 0.04 μM) [% UTC] | Antiproliferative effect (cell proliferation, luminescence) (Detroit-562 cells; 0.2 μM) [% UTC] | Antiproliferative effect (cell proliferation, luminescence) (Detroit-562 cells; 1 μM) [% UTC] | Antiproliferative effect (cell proliferation, luminescence) (Detroit-562 cells; 5 μM) [% UTC] | human Yap1 mRNA expression (Yap1 mRNA [2]; 0.04 μM) [% UTC] | human Yap1 mRNA expression (Yap1 mRNA [2]; 0.2 μM) [% UTC] | human Yap1 mRNA expression (Yap1 mRNA [2]; 1 μM) [% UTC] | human Yap1 mRNA expression (Yap1 mRNA [2]; 5 μM) [% UTC] | human Yap1 mRNA expression (Yap1 mRNA [3]; 0.04 μM) [% UTC] | human Yap1 mRNA expression (Yap1 mRNA [3]; 0.2 μM) [% UTC] | human Yap1 mRNA expression (Yap1 mRNA [3]; 1 μM) [% UTC] | human Yap1 mRNA expression (Yap1 mRNA [3]; 5 μM) [% UTC] | also measured
1 | 1198440 (AAGTGTATGTCAGAAG; cEt, 2'-MOE, 5-methylcytosine, phosphorothioate modifications, further chemistry not given here) [compound 1198440] | 86 | 85 | 83 | 51 | 84 | 72 | 53 | 49 | 84 | 67 | 59 | 45 | 83 | 43 | 11 | 3 | 70 | 28 | 7 | 2 | Kidney weight [1]: 0.46 g; Liver weight [1]: 1.97 g; Spleen weight [1]: 0.18 g; body weight [1]: 35 g; UALB [4]: 0.2 mg/dL; UCRE [4]: 53 mg/dL; UTP [4]: 13 mg/dL; human Yap1 mRNA expression (Yap1 mRNA [5]; 0.08 μM): 32 % UTC; human Yap1 mRNA expression (Yap1 mRNA [5]; 0.4 μM): 12 % UTC; human Yap1 mRNA expression (Yap1 mRNA [5]; 2 μM): 8 % UTC; human Yap1 mRNA expression (Yap1 mRNA [5]; 10 μM): 7 % UTC; Antiproliferative effect (cell proliferation, luminescence) (SCC-15 cells; 0.04 μM): 72 % UTC; Antiproliferative effect (cell proliferation, luminescence) (SCC-15 cells; 0.2 μM): 54 % UTC; Antiproliferative effect (cell proliferation, luminescence) (SCC-15 cells; 1 μM): 42 % UTC; Antiproliferative effect (cell proliferation, luminescence) (SCC-15 cells; 5 μM): 32 % UTC
2 | CGCCGATAAGGTACAC (cEt gapmer, phosphorothioate backbone, further chemistry not given here) [ION 792169, reference compound] | 96 | 102 | 103 | 90 | 105 | 90 | 96 | 72 | 99 | 106 | 100 | 79 | 89 | 98 | 102 | 107 | 91 | 94 | 93 | 98 | human Yap1 mRNA expression (Yap1 mRNA [5]; 0.08 μM): 87 % UTC; human Yap1 mRNA expression (Yap1 mRNA [5]; 0.4 μM): 87 % UTC; human Yap1 mRNA expression (Yap1 mRNA [5]; 2 μM): 89 % UTC; human Yap1 mRNA expression (Yap1 mRNA [5]; 10 μM): 86 % UTC; Antiproliferative effect (cell proliferation, luminescence) (SCC-15 cells; 0.04 μM): 93 % UTC; Antiproliferative effect (cell proliferation, luminescence) (SCC-15 cells; 0.2 μM): 92 % UTC; Antiproliferative effect (cell proliferation, luminescence) (SCC-15 cells; 1 μM): 89 % UTC; Antiproliferative effect (cell proliferation, luminescence) (SCC-15 cells; 5 μM): 71 % UTC
3 | 715487 (kA*kT*kT*dA*d[5mC]*dT*dT*d[5mC]*dA*dT*dA*dG*d[5mC]*kT*kT*kA) [compound 715487] | 95 | 85 | 67 | 33 | 93 | 69 | 52 | 38 | 92 | 84 | 71 | 52 | 89 | 67 | 31 | 11 | 77 | 49 | 22 | 7 | human Yap1 mRNA expression (Yap1 mRNA [5]; 0.08 μM): 70 % UTC; human Yap1 mRNA expression (Yap1 mRNA [5]; 0.4 μM): 32 % UTC; human Yap1 mRNA expression (Yap1 mRNA [5]; 2 μM): 16 % UTC; human Yap1 mRNA expression (Yap1 mRNA [5]; 10 μM): 11 % UTC; Antiproliferative effect (cell proliferation, luminescence) (SCC-15 cells; 0.04 μM): 87 % UTC; Antiproliferative effect (cell proliferation, luminescence) (SCC-15 cells; 0.2 μM): 66 % UTC; Antiproliferative effect (cell proliferation, luminescence) (SCC-15 cells; 1 μM): 47 % UTC; Antiproliferative effect (cell proliferation, luminescence) (SCC-15 cells; 5 μM): 28 % UTC
